Results taken from patent US20090318493A1 (Roche Palo Alto LLC, priority 2008, published 2009).
Like-named read-outs stand apart in the source and are kept apart here.

How the values were obtained:
Type in all cases: binding
hNET transporter = target: T1, hNET transporter (Homo sapiens, UniProt P23975); test: Human norepinephrine transporter (hNET) scintillation proximity assay, competition with [3H]-Nisoxetine
T1 construct: expressed in transfected cells; membranes prepared
Experimental: This assay was used to determine the affinity of ligands for the hNET transporter by competition with [^3H]-Nisoxetine. As in the hSERT assay of the above example, receptor-containing membranes were pre-coupled to the SPA beads and the binding of the appropriate radioligand to the transporter was measured. The light emission was proportional to the amount of bound radioligand, with unbound radioligand producing no signal.
HEK-293 cells (Tatsumi et al., Eur. J. Pharmacol. 1997, 30, 249-258) stably expressing recombinant hNET (Clone: HEK-hNET #2) were maintained with media (DMEM hi glucose with 10% FBS, 300 μg/ml G418 and 2 mM L-Glutamine) and incubated at 37° C. with 5% CO2. Cells were released from culture flasks using PBS for 1-2 minutes. The cells were subsequently centrifuged at 1000 g's for 5 minutes and resuspended in PBS prior to being used in the membrane preparation.
(§1) Cell membranes were prepared using a membrane preparation buffer of 50 mM TRIS (pH 7.4). Cell membranes were prepared from a single cube (7.5×10^9cells total). Cells were homogenized using a Polytron (setting medium for a 4 second burst). The homogenate was then centrifuged at 48,000×g for 15 minutes, the supernatant subsequently removed and discarded, and the pellet resuspended with fresh buffer. After a second centrifugation, the pellet was re-homogenized and brought to a final volume determined during the assay. Typically, membrane portions were aliquoted in 3-6 mg/mil (w:v). and stored at −80° C.
^3[H] […] Compounds of the invention were diluted from 10 mM to 0.1 nM FAC (10 point curves, whole log /half log dilutions) via a Beckman Biomek 2000 using a serial dilution protocol. The test compounds were then transferred (20 μl/well) and the radioligand was added at 50 μl/well. Membrane and beads were prepared to a ratio of 10 μg: 0.7 mg, with 0.7 mg PVT-WGA Amersham beads (Cat# RPQ0282V) added per well. 130 μl of the membrane: bead mixture was added to the assay plate. The mixtures were allowed to stand at room temperature for one hour, and were then counted on a Packard TopCount LCS, a generic SPA counting protocol settings (Energy Range: Low, Efficiency Mode: Normal, Region A: 1.50-35.00, Region B: 1.50-256.00, Count Time (min.): 0.40, Background Subtract: none, Half-Life Correction: no, Quench Indicator: tSIS, Platemap blank subtraction: No, Cross talk reduction: Off).
The % inhibition was calculated for each compound tested [(Compound CPM at maximum concentration-Non-Specific CPM)/Total CPM*100]. The concentration producing 50% inhibition (IC50) was determined using an iterative non-linear curve fitting technique with Activity Base/Xlfit using the following equation:
(§2) where max=total binding, min=non specific binding, x=concentration (M) of the tested compound and n=Hill slope. The inhibition dissociation constant (Ki) of each compound was determined according to the method of Cheng-Prusoff and then converted into negative logarithm (pKi) of the Ki.

hSERT transporter = target: T2, hSERT transporter (Homo sapiens, UniProt P31645); test: Human serotonin transporter (hSERT) scintillation proximity assay, competition with [3H]-Citalopram
T2 construct: expressed in transfected cells; membranes prepared
From the text: Screening for Human Serotonin Transporter (hSERT) Antagonists Using a Scintillation Proximity Assay (SPA)
The screening assay of this example was used to determine the affinity of ligands at the hSERT transporter by competition with [^3H]-Citalopram.
Scintillation Proximity Assay (SPA) works by bringing radioligand within close proximity to the bead's scintillant to stimulate light emission. In this assay, the receptor-containing membranes were pre-coupled to the SPA beads and the binding of the appropriate radioligand to the transporter was measured. The light emission was proportional to the amount of bound radioligand. Unbound radioligand produced no signal as a result of distant proximity to scintillant (lack of energy transfer).
Cells are released from culture flasks using PBS for 1-2 minutes. The cells were subsequently centrifuged at 1000 g's for 5 minutes and resuspended in PBS prior to being used in the membrane preparation.
as §1, with “(7.5×10^9 cells” for “(7.5×10^9cells”, “3 mg/ml” for “3-6 mg/mil”
Compounds of the invention were diluted from 10 mM to 0.1 nM FAC (10 point curves, whole log/half log dilutions) via a Beckman Biomek 2000 using a serial dilution protocol. The test compounds were then transferred (20 μl/well) and the [^3H]-Citalopram radioligand was added at 50 μl/well. Membrane and beads were prepared to a ratio of 10 μg: 0.7 mg, with 0.7 mg PVT-WGA Amersham beads (Cat# RPQ0282V) added per well. 130 μl of the membrane: bead mixture was added to the assay plate.
The % inhibition was calculated for each compound tested [(Compound counts per minute (CPM) at maximum concentration-Non-Specific CPM)/Total CPM*100].
as §2

hDAT = target: T3, hDAT (Homo sapiens, UniProt Q01959); test: Human dopamine transporter scintillation proximity assay, competition with [3H]-Vanoxerine
T3 construct: expressed in transfected cells; plated whole cells
Experimental: This assay was used to determine the affinity of ligands for the dopamine transporter by competition with [^3H]-Vanoxerine.
Cells were plated four hours prior to experiment by placing approximately 30,000 cells per well (in PBS) on white, opaque Cell-Tak coated 96 well plates. Extra buffer was apriated from the cell plates using an ELx405 plate washer.
Compounds of the invention were diluted from 10 mM to 0.1 nM FAC (10 point curves, whole log/half log dilutions) via a Beckman Biomek 2000 using a 10-point dilution protocol. The mixtures were allowed to stand at room temperature for 30 minutes, and were then counted on a Packard TopCount LCS, a generic SPA counting protocol settings, Count Time (min.): 0.40, Background Subtract: none, Half-Life Correction: none, Quench Indicator: tSIS, Platemap blank subtraction: none, Cross talk reduction: Off).
The % inhibition was calculated for each compound tested [(Compound CPM at maximum concentration-Non-Specific CPM)/Total CPM*100].
as §2

[1] = Table 1, read-out: pIC50 DAT (converted)
[2] = Table 1, read-out: pIC50 NET (converted)
[3] = Table 1, read-out: pIC50 SERT (converted)

T2 sequence (P31645 whole entry): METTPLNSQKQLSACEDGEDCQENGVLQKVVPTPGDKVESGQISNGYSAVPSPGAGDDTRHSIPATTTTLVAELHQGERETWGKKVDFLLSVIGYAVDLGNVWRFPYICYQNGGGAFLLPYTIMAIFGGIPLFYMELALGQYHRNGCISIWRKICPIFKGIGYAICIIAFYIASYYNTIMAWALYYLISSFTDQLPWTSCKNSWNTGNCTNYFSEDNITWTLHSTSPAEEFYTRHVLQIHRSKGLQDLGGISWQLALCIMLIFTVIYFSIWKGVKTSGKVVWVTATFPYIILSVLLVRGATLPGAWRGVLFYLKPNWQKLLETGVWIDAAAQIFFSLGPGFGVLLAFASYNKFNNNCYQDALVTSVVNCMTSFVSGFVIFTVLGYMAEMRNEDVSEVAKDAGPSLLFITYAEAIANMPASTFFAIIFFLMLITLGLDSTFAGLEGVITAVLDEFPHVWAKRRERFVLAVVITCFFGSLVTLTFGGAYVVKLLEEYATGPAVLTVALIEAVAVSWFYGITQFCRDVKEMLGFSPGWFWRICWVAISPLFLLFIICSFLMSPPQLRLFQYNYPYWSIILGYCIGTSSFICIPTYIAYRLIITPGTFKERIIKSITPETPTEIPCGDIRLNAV
T3 sequence (Q01959 whole entry): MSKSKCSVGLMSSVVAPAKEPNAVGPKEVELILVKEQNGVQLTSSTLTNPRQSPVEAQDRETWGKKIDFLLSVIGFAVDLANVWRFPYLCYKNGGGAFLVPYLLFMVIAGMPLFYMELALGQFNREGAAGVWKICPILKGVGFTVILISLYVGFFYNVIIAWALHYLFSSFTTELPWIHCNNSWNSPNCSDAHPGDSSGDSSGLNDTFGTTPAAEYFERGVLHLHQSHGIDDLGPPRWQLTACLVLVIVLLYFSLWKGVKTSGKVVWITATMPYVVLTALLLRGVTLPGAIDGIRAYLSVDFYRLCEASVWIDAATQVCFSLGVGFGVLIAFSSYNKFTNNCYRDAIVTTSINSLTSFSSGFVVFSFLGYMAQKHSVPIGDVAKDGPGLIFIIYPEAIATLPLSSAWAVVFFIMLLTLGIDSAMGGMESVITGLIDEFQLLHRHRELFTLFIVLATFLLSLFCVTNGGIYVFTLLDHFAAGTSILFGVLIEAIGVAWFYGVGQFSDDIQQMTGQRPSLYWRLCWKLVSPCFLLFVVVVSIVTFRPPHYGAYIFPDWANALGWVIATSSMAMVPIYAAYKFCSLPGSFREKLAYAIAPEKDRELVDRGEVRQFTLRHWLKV
T1 sequence (P23975 whole entry): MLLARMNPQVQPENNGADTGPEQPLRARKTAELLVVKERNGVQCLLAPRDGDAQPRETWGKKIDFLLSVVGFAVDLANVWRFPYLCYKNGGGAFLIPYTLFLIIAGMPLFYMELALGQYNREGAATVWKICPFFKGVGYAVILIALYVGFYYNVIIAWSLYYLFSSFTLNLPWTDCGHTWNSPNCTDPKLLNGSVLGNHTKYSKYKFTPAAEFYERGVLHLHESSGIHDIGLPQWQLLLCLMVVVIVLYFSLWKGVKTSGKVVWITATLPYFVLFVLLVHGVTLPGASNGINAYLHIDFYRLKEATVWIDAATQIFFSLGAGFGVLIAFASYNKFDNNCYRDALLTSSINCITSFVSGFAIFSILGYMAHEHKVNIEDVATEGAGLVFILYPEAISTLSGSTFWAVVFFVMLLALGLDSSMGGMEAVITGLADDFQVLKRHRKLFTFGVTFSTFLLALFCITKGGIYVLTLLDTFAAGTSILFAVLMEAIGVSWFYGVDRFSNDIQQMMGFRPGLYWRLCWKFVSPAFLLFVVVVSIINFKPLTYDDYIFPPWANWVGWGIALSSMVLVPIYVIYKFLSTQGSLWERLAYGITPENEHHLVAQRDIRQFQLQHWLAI

IC50 (hDAT; [1]) | IC50 (hSERT transporter; [3]) | Structure (SMILES) | IC50 (hNET transporter) | IC50 (hSERT transporter) | IC50 (hNET transporter; [2]) | IC50 (hDAT)
 |  | CCCC1(C(=O)c2ccc(Cl)c(Oc3ccccc3F)c2)CCNC1 (stereo not drawn) [Compound 17, [4-Chloro-3-(2-fluoro-phenoxy)-phenyl]-(3-propyl-pyrrolidin-3-yl)-methanone] |  | 47.9 nM | 24 nM | 15.8 nM
 |  | CCCC1(C(=O)c2ccc(Cl)c(Oc3ccc(F)cc3)c2)CCNC1 (stereo not drawn) [Compound 18, [4-Chloro-3-(4-fluoro-phenoxy)-phenyl]-(3-propyl-pyrrolidin-3-yl)-methanone] |  | 24 nM | 15.1 nM | 16.6 nM
 |  | CCC1(C(=O)c2ccc(Cl)c(Oc3ccccc3)c2)CCNC1 (stereo not drawn) [Compound 19, (4-Chloro-3-phenoxy-phenyl)-(3-ethyl-pyrrolidin-3-yl)-methanone] |  | 57.5 nM | 26.3 nM | 7.59 nM
 |  | CC(C)CC[C@@]1(C(=O)c2cc(F)c(N)c(Cl)c2)CCNC1 [Compound 21, (4-Amino-3-chloro-5-fluoro-phenyl)-[(R)-3-(3-methyl-butyl)-pyrrolidin-3-yl]-methanone] |  | 3.31 nM | 1.91 nM | 1.51 nM
 |  | CC(C)C[C@@]1(C(=O)c2cc(F)c(N)c(Cl)c2)CCNC1 [Compound 23] |  | 4.79 nM | 3.98 nM | 6.17 nM
 |  | CC(C)(C)CC[C@]1(C(=O)c2cc(F)c(N)c(Cl)c2)CCNC1 [Compound 25, (4-Amino-3-chloro-5-fluoro-phenyl)-[(S)-3-(3,3-dimethyl-butyl)-pyrrolidin-3-yl]-methanone] |  | 1.74 nM | 0.977 nM | 0.55 nM
 |  | CC(C)(C)CC[C@@]1(C(=O)c2cc(F)c(N)c(Cl)c2)CCNC1 [Compound 26, (4-Amino-3-chloro-5-fluoro-phenyl)-[(R)-3-(3,3-dimethyl-butyl)-pyrrolidin-3-yl]-methanone] |  | 75.9 nM | 25.1 nM | 26.9 nM
 |  | CC(C)C[C@]1(C(=O)c2ccc(N)c(Cl)c2)CCNC1 [Compound 28, (4-Amino-3-chloro-phenyl)-((S)-3-isobutyl-pyrrolidin-3-yl)-methanone] |  | 0.117 nM | 3.02 nM | 0.832 nM
 |  | CC(C)CC1(C(=O)c2ccc(Cl)c(Oc3ccccc3)c2)CCNC1 (stereo not drawn) [Compound 31, (4-Chloro-3-phenoxy-phenyl)-(3-isobutyl-pyrrolidin-3-yl)-methanone] |  | 3.72 nM | 1.91 nM | 26.3 nM
331 nM | 166 nM | CCCC1(C(=O)c2ccc(Cl)c(Oc3ccc(C(F)(F)F)cc3)c2)CCNC1 (stereo not drawn) [Compound 32, [4-Chloro-3-(4-trifluoromethyl-phenoxy)-phenyl]-(3-propyl-pyrrolidin-3-yl)-methanone] |  |  | 200 nM | 
2.24 nM | 0.501 nM | CC1(CC2(C(=O)c3ccc(Cl)c(Cl)c3)CCNCC2)CC1 [Compound 34, (3,4-Dichloro-phenyl)-[4-(1-methyl-cyclopropylmethyl)-piperidin-4-yl]-methanone] |  |  | 66.1 nM | 
10.5 nM | 0.589 nM | Cc1ccc(C(=O)C2(CC(C)C)CCNCC2)cc1Cl [Compound 35, (3-Chloro-4-methyl-phenyl)-(4-isobutyl-piperidin-4-yl)-methanone] |  |  | 45.7 nM | 
 |  | CCCC1(C(=O)c2ccc3ccccc3c2)CCNCC1 [Compound 36, Naphthalen-2-yl-(4-propyl-piperidin-4-yl)-methanone] |  | 0.102 nM | 15.8 nM | 9.12 nM
4.79 nM | 1.12 nM | COC(C)(C)CC1(C(=O)c2ccc(Cl)c(Cl)c2)CCNCC1 [Compound 37, (3,4-Dichloro-phenyl)-[4-(2-methoxy-2-methyl-propyl)-piperidin-4-yl]-methanone] |  |  | 105 nM | 
14.8 nM | 3.47 nM | Cc1ccc(C(=O)C2(CCC(C)C)CCNCC2)cc1Cl [Compound 38, (3-Chloro-4-methyl-phenyl)-[4-(3-methyl-butyl)-piperidin-4-yl]-methanone] |  |  | 135 nM | 
3.16 nM | 1.48 nM | O=C(c1ccc(Cl)c(Cl)c1)C1(CC2CCCC2)CCNCC1 [Compound 39, (4-Cyclopentylmethyl-piperidin-4-yl)-(3,4-dichloro-phenyl)-methanone] |  |  | 41.7 nM | 
1480 nM | 69.2 nM | CCCC1(C(=O)c2ccc(Cl)cc2Oc2ccccc2)CCNCC1 [Compound 40, (4-Chloro-2-phenoxy-phenyl)-(4-propyl-piperidin-4-yl)-methanone] |  |  | 27.5 nM | 
7.94 nM | 1.15 nM | O=C(c1ccc(Cl)c(Cl)c1)C1(CC2CCOCC2)CCNCC1 [Compound 41, (3,4-Dichloro-phenyl)-[4-(tetrahydro-pyran-4-ylmethyl)-piperidin-4-yl]-methanone] |  |  | 209 nM | 

Structure (SMILES) | IC50 (hDAT; [1]) | IC50 (hSERT transporter; [3]) | IC50 (hNET transporter) | IC50 (hSERT transporter) | IC50 (hNET transporter; [2]) | IC50 (hDAT)
CC(C)CCC1(C(=O)c2ccc(Cl)c(Oc3ccccc3)c2)CCNC1 (stereo not drawn) [Compound 12] | 1480 nM |  | 12 nM | 43.7 nM |  | 
CCCC1(C(=O)c2ccc(Cl)c(Sc3ccccc3)c2)CCNC1 (stereo not drawn) [Compound 15, (4-Chloro-3-phenylsulfanyl-phenyl)-(3-propyl-pyrrolidin-3-yl)-methanone] | 110 nM |  | 87.1 nM | 34.7 nM |  | 
CCCC1(C(=O)c2ccc(Cl)c(S(=O)(=O)c3ccccc3)c2)CCNC1 (stereo not drawn) [Compound 16, (3-Benzenesulfonyl-4-chloro-phenyl)-(3-propyl-pyrrolidin-3-yl)-methanone] | 661 nM | 191 nM |  |  | 4900 nM | 
CC(C)CC[C@]1(C(=O)c2cc(F)c(N)c(Cl)c2)CCNC1 [Compound 22, (4-Amino-3-chloro-5-fluoro-phenyl)-[(S)-3-(3-methyl-butyl)-pyrrolidin-3-yl]-methanone] |  | 132 nM | 33.1 nM |  |  | 83.2 nM
CC(C)C[C@@]1(C(=O)c2ccc(N)c(Cl)c2)CCNC1 [Compound 27, (4-Amino-3-chloro-phenyl)-((R)-3-isobutyl-pyrrolidin-3-yl)-methanone] | 174 nM |  | 55 nM | 8.32 nM |  | 
